From ChEMBL document CHEMBL5042533, “Structural Optimization and Structure-Activity Relationship Studies of 6,6-Dimethyl-4-(phenylamino)-6H-pyrimido[5,4-b][1,4]oxazin-7(8H)-one Derivatives as A New Class of Potent Inhibitors of Pan-Trk and Their Drug-Resistant Mutants” (J Med Chem, 2022)
Active and inactive are the calls of the source. The calls are words filed in the database; no cut-off is given here.

Legend:
BaF3 [1] = assay: Cytotoxicity against mouse BaF3 cells expressing LMNA fused TrkA F589L mutant assessed as inhibition of cell growth incubated for 3 days by CCK-8 assay; type: functional, cell-based; details: BaF3, 72 h
[2] = target: Serine/threonine-protein kinase AKT (Homo sapiens) (UniProt P31751+Q9Y243+P31749); assay: Inhibition of AKT phosphorylation in human KM12-luc cells incubated for 6 hrs by Western blot analysis; type: cell-based; details: dose 3-300 nM
BaF3 [3] = assay: Induction of apoptosis on mouse BaF3 cells expressing TEL fused TrkC G623R mutant incubated for 24 hrs by Annexin V-FITC/propidium iodide staining based flow cytometric analysis; type: functional, cell-based; details: dose 3-1000 nM
[4] = target: Epithelial discoidin domain-containing receptor 1 (Homo sapiens, UniProt Q08345); assay: Inhibition of human DDR1 in presence of ATP by radiometric assay
[5] = target: Tyrosine-protein kinase Fes/Fps (Homo sapiens, UniProt P07332); assay: Inhibition of human FES in presence of ATP by radiometric assay
[6] = target: T1, Tyrosine-protein kinase receptor TYRO3 (Homo sapiens, UniProt Q06418); assay: Inhibition of human RSE in presence of ATP by radiometric assay
T1 sequence (Q06418 whole entry): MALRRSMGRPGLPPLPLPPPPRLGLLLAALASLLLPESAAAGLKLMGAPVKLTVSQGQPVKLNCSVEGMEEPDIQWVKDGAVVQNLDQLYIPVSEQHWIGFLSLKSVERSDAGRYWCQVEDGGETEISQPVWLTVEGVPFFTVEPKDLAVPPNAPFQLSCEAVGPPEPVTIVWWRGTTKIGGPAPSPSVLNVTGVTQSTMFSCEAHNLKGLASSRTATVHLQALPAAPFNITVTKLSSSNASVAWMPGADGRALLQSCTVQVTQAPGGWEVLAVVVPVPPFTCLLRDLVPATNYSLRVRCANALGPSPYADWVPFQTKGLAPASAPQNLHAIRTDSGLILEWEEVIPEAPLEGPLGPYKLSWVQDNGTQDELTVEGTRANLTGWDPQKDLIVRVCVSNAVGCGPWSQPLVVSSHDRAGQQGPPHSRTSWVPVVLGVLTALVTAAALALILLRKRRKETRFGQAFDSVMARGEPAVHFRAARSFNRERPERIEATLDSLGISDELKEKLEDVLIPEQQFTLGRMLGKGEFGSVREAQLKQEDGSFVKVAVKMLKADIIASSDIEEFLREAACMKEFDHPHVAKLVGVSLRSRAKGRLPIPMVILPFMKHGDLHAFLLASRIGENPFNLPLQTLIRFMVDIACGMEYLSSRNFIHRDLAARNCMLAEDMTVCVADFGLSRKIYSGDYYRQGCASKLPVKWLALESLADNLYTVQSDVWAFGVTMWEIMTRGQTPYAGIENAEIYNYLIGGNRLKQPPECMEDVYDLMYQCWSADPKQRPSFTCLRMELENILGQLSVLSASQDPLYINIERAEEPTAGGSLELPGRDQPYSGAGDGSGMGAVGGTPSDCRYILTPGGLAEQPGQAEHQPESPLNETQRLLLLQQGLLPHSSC

BaF3 [7] = assay: Antitumour activity against mouse BaF3 cells expressing TEL fused TrkA allografted in NOD-SCID mouse assessed as reduction in tumor volume at 20 mg/kg, iv and measured every 2 or 3 days for 10 days; type: functional, organism-based; details: time 10.0 day
[8] = Clearance in Sprague-Dawley rat at 10 mg/kg, po measured up to 24 hrs by HPLC method; type: ADME, organism-based; details: in vivo
[9] = Oral bioavailability in Sprague-Dawley rat at 10 mg/kg measured up to 24 hrs by HPLC method; type: ADME, organism-based; details: in vivo
[10] = AUC(0 to t) in Sprague-Dawley rat at 5 mg/kg, iv measured up to 24 hrs by HPLC method; type: ADME, organism-based; parameters: route intravenous, dose 5 mg/kg, time <=24; details: in vivo
[11] = MRT (0 to t) in Sprague-Dawley rat at 5 mg/kg, iv measured up to 24 hrs by HPLC method; type: ADME, organism-based; details: in vivo
[12] = Clearance in Sprague-Dawley rat at 5 mg/kg, iv measured up to 24 hrs by HPLC method; type: ADME, organism-based; details: in vivo
BaF3 [13] = assay: Antitumour activity against mouse BaF3 cells expressing TEL fused TrkA allografted in NOD-SCID mouse assessed as reduction in tumor volume administered intravenously once daily for 10 days and measured every 2 or 3 days; type: functional; details: dose 5-20 mg/kg, time 10.0 day
BaF3 [14] = assay: Antitumour activity against larotrectinib-resistant mouse BaF3 cells expressing TEL fused TrkC G623R mutant allografted in NOD-SCID mouse assessed as reduction in tumor growth at 10 mg/kg/day, iv qd measured every 2 or 3 days for 10 days; type: functional, organism-based; details: time 10.0 day
[15] = Toxicity in NOD-SCID mouse allografted with mouse BaF3 cells expressing TEL fused TrkA assessed as body weight loss at 5 to 20 mg/kg, iv measured every 2 or 3 days for 10 days; type: organism-based; details: in vivo, 240 h, dose 5-20 mg/kg, time 10 day
[16] = Toxicity in NOD-SCID mouse assessed as histological changes in heart at 5 to 20 mg/kg, iv measured after 10 days by H and E staining based microscopic analysis; type: organism-based; details: in vivo, 240 h, dose 5-20 mg/kg, time 10 day
[17] = Toxicity in NOD-SCID mouse assessed as histological changes in liver at 5 to 20 mg/kg, iv measured after 10 days by H and E staining based microscopic analysis; type: organism-based; details: in vivo, 240 h, dose 5-20 mg/kg, time 10 day
[18] = Toxicity in NOD-SCID mouse assessed as histological changes in kidney at 5 to 20 mg/kg, iv measured after 10 days by H and E staining based microscopic analysis; type: organism-based; details: in vivo, 240 h, dose 5-20 mg/kg, time 10 day
BaF3 [19] = assay: Downregulation of TrkC protein expression in mouse BaF3 cells expressing TEL fused TrkC G623R mutant incubated for 6 hrs by Western blot analysis; type: functional, cell-based
BaF3 [20] = assay: Downregulation of TrkA protein expression in mouse BaF3 cells expressing TEL fused TrkA incubated for 6 hrs by Western blot analysis; type: functional, cell-based
BaF3 [21] = assay: cells; details: Mus musculus
Description: Cytotoxicity against mouse BaF3 cells harboring TEL fused TrkC G613R mutant assessed as inhibition of cell growth by MTT assay

BaF3 [22] = assay: cells; details: Mus musculus, BaF3, 72 h
Description: Cytotoxicity against mouse BaF3 cells expressing TEL fused TrkC assessed as inhibition of cell growth incubated for 3 days by CCK-8 assay

BaF3 [23] = assay: cells; details: Mus musculus, BaF3, 72 h; remark: listed apart in the source
Description: Cytotoxicity against mouse BaF3 cells expressing LMNA fused TrkA G667S mutant assessed as inhibition of cell growth incubated for 3 days by CCK-8 assay

BaF3 [24] = assay: cells; details: Mus musculus, BaF3, 72 h; remark: listed apart in the source
Description: Cytotoxicity against mouse BaF3 cells expressing TEL fused TrkC G696C assessed as inhibition of cell growth incubated for 3 days by CCK-8 assay

cells = details: Homo sapiens, KM12-Luc, 72 h
Description: Cytotoxicity against human KM12-Luc cells expressing TPM3 fused TrkA assessed as inhibition of cell growth incubated for 3 days by CCK-8 assay

in vitro = details: mouse, BaF3 cells
Description: Cytotoxicity against mouse BaF3 assessed as inhibition of cell growth incubated for 3 days by CCK-8 assay

Chain of Epithelial discoidin domain-containing receptor 1 (Q08345 whole entry, the tested form may be a part): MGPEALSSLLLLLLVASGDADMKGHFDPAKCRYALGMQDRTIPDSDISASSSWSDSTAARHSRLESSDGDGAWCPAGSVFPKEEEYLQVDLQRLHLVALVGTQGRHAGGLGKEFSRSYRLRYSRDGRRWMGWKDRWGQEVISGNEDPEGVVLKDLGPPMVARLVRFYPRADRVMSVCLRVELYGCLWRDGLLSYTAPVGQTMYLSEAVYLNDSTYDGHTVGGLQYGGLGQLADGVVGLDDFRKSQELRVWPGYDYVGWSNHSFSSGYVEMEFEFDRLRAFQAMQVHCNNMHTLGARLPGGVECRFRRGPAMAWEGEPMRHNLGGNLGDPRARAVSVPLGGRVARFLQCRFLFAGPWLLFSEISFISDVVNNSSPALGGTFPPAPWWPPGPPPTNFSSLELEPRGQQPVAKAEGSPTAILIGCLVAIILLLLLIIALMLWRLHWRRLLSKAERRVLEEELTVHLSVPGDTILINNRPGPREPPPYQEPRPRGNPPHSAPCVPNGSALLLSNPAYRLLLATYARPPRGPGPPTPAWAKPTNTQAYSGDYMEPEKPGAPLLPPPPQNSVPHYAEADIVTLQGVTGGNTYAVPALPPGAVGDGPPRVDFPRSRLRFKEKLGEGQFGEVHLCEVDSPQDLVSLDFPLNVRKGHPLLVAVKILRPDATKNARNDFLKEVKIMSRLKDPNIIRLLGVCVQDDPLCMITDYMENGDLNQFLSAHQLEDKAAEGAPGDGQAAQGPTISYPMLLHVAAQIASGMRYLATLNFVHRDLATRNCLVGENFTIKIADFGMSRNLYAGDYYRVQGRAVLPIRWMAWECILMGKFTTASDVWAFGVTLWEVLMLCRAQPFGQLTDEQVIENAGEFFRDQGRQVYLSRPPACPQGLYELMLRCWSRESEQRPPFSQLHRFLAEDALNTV
Chain of Serine/threonine-protein kinase AKT (Homo sapiens) (P31749 whole entry, looked up, the tested form may be a part): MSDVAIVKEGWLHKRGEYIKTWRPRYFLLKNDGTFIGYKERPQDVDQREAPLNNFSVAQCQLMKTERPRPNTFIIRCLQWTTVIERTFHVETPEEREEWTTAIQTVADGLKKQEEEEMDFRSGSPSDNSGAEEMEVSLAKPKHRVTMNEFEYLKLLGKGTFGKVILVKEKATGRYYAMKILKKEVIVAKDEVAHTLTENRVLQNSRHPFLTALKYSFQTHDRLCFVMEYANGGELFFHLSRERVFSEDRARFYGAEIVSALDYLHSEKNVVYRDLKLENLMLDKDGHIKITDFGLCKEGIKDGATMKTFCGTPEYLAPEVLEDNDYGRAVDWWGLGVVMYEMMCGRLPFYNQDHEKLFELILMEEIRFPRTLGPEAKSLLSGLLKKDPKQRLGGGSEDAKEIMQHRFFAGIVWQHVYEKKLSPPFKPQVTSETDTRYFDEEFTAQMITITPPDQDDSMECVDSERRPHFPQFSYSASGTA
Chain of Serine/threonine-protein kinase AKT (Homo sapiens) (P31751 whole entry, looked up, the tested form may be a part): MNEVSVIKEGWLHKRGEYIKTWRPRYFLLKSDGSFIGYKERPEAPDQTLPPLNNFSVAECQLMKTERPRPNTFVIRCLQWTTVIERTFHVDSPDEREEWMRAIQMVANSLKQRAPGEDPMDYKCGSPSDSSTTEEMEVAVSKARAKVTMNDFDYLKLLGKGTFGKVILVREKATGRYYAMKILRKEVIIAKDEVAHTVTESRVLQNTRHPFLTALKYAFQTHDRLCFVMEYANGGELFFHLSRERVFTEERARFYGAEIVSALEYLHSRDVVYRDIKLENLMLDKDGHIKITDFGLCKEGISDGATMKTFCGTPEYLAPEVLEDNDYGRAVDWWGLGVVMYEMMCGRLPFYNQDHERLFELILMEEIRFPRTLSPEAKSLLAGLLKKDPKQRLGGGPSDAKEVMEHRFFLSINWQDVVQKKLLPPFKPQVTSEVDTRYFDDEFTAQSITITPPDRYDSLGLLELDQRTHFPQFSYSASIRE
Chain of Serine/threonine-protein kinase AKT (Homo sapiens) (Q9Y243 whole entry, looked up, the tested form may be a part): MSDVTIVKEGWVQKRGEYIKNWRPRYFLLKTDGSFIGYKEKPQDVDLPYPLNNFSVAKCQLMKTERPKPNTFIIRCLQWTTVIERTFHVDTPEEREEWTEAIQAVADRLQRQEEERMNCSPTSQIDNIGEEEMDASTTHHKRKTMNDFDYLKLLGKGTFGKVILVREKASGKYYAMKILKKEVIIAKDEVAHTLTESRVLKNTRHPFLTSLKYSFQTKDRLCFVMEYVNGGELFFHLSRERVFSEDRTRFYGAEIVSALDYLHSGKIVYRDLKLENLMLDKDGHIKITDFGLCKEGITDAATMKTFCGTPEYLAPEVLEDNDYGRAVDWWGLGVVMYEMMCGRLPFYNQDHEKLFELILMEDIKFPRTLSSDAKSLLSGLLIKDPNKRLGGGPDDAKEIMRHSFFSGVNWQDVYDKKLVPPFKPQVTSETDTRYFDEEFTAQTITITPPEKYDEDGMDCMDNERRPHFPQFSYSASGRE
Chain of Tyrosine-protein kinase Fes/Fps (P07332 whole entry): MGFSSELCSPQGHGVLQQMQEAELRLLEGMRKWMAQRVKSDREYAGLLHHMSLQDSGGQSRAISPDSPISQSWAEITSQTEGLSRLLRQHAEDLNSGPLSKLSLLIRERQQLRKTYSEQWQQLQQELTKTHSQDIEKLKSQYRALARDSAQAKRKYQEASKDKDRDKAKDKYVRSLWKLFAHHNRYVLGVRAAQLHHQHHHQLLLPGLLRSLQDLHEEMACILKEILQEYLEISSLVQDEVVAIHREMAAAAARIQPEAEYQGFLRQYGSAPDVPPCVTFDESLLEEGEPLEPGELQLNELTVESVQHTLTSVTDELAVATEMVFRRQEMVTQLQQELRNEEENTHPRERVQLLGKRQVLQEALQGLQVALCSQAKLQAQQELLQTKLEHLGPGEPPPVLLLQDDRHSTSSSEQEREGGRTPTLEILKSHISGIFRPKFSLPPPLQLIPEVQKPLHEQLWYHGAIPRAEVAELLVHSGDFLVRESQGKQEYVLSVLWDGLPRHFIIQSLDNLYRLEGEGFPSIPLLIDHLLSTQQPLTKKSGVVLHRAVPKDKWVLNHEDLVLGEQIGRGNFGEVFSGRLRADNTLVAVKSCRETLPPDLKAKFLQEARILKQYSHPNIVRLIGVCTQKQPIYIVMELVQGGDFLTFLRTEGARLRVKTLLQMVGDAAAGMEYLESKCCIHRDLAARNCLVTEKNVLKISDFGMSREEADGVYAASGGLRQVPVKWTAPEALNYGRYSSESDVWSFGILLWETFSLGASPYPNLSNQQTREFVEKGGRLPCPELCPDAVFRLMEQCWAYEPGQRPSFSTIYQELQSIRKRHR

inhibition [2]: Active
IC50 [4]: 126 nM
IC50 [5]: 269 nM
IC50 [6]: 138 nM
CL/F [8]: 11.8 mL/min/kg
bioavailability [9]: 19.8%
AUC(0-t) at 24 h [10]: 17900 ng·h/mL
MRT last at 24 h [11]: 1.07 h
clearance [12]: 4.89 mL/min/kg
IC50 (BaF3 [21]): 15 nM
IC50 (BaF3 [22]): 13 nM
IC50 (BaF3 [23]): 6 nM
IC50 (BaF3 [24]): 2 nM
IC50 (cells): 6 nM
IC50 at 3 days (in vitro): 9530 nM
Compound: Cc1cc(NC(=O)Nc2cc(C(C)(C)C)nn2-c2ccc(Cl)cc2)ccc1Nc1ncnc2c1OC(C)(C)C(=O)N2
IC50 (BaF3 [1]): 7 nM
Activity (BaF3 [3]): Dose-Dependent Effect
Activity (BaF3 [7]): Active
Activity (BaF3 [13]): Dose-Dependent Effect
Activity (BaF3 [14]): Active
Activity [15]: Non-Toxic
Activity [16]: Non-Toxic
Activity [17]: Non-Toxic
Activity [18]: Non-Toxic
Activity (BaF3 [19]): Active
Activity (BaF3 [20]): Active
